Measurements as given in PMC3688238, “The effect of different dosing regimens of motesanib on the gallbladder: a randomized phase 1b study in patients with advanced solid tumors” (BMC Cancer, 2013).

Legend:
Type in all cases: in vivo, human
[1] = tested on: gallbladder; experiment: Gallbladder size (volume) by ultrasound, independent central review; conditions: for Mean change in gallbladder volume after discontinuation of motesanib (95% CI): last on-treatment to last available off-treatment measurement; for Gallbladder volume, mean change from baseline (95% CI): ultrasound
Description: (§1) Gallbladder volume was assessed by ultrasound after a ≥8 hours fast at screening (within 21 days prior to randomization) and before the motesanib morning dose on days 8 and 15 of cycle 1, on day 1 of cycles 2 and 3, every 6 weeks thereafter, and at the safety follow-up (30 to 33 days after the last dose). Ultrasound was performed weekly when motesanib was withheld and weekly for 4 weeks following treatment discontinuation. Gallbladder ultrasound measurements were assessed by independent central radiologic review (MedQIA, Los Angeles, CA, USA). Gallbladder ejection fraction was assessed by investigators or other study site personnel using CCK-HIDA at screening (within 21 days of randomization), on day 1 of cycle 2, day 1 of cycle 6 (±3 days), and at the safety follow-up. Study-specific training and standard operating procedures were supplied to all radiology technicians.
(§2) The ultrasound and CCK-HIDA gallbladder analysis sets, which included all randomized patients who received ≥1 dose of motesanib and had baseline and ≥1 evaluable follow-up ultrasound or CCK-HIDA, respectively, were used for the principal analysis of endpoints related to gallbladder size and characteristics. For each dosing scheme, estimates for the mean and maximum change from baseline in gallbladder size (volume as measured by ultrasound) and function (ejection fraction as measured by CCK-HIDA scan) were calculated. Mean change from baseline was calculated by taking the difference between the baseline gallbladder measurement and the average gallbladder measurement observed during study treatment. The mean (95% CI) difference was then calculated across all patients for each treatment arm, and for the whole study population. Maximum change from baseline in gallbladder size or volume was calculated by taking the difference between the baseline gallbladder measurement and the maximum gallbladder measurement observed during study treatment. The mean (95% CI) maximum change from baseline was then calculated across all patients for each treatment arm, and for the whole study population. Reversibility of changes in gallbladder volume and ejection fraction were evaluated calculating changes between the last on-treatment measurement and the last available measurement following the discontinuation of motesanib. Covariates (treatment, age, sex, body mass index, and nonsteroidal anti-inflammatory drug [NSAID] use) were explored in a linear regression model for potential relationships with gallbladder volume. Objective response was assessed for the safety analysis set, including only patients with measureable disease at baseline.

[2] = tested on: gallbladder; experiment: Gallbladder function (ejection fraction) by CCK-HIDA, investigator assessment; conditions: for Gallbladder ejection fraction, mean change from baseline (95% CI): CCK-HIDA
Description: as §1, §2

[3] = tested on: gallbladder; experiment: Specific gallbladder findings per independent ultrasound review
Description: as §1

[4] = Arm B, 75 mg BID 2 wk on/1 wk off, n = 9
[5] = Arm B, 75 mg BID 2 wk on/1 wk off, n = 11
[6] = Arm C, 75 mg BID 5 d on/2 d off, n = 8
[7] = Arm C, 75 mg BID 5 d on/2 d off, n = 11
[8] = Arm B, 75 mg BID 2 wk on/1 wk off, n = 3
[9] = Arm B, 75 mg BID 2 wk on/1 wk off, n = 10
[10] = Arm C, 75 mg BID 5 d on/2 d off, n = 2
[11] = Arm C, 75 mg BID 5 d on/2 d off, n = 10
[12] = Arm A, 125 mg QD, post baseline, n = 23
[13] = Arm A, 125 mg QD, post treatment, n = 16
[14] = Arm B, 75 mg BID 2 wk on/1 wk off, post baseline, n = 11
[15] = Arm B, 75 mg BID 2 wk on/1 wk off, post treatment, n = 9

Mean change in gallbladder volume from baseline to last available off-treatment measurement (95% CI) ([1]; Arm A, 125 mg QD, n = 16): 10.4 (−10.0 to 30.8) cc
Mean change in gallbladder volume after discontinuation of motesanib (95% CI) ([1]; Arm A, 125 mg QD, n = 16): −8.5 (−38.8 to 21.7) cc
Gallbladder volume, maximum change from baseline (95% CI) ([1]; Arm A, 125 mg QD, n = 23): 45.6 (20.2–70.9) cc
Gallbladder volume, mean change from baseline (95% CI) ([1]; Arm A, 125 mg QD, n = 23): 17.7 (6.4–28.9) cc
Mean change in gallbladder volume from baseline to last available off-treatment measurement (95% CI) [1, 4]: −14.4 (−31.1 to 2.4) cc
Mean change in gallbladder volume after discontinuation of motesanib (95% CI) [1, 4]: −16.2 (−37.4 to 5.1) cc
Gallbladder volume, maximum change from baseline (95% CI) [1, 5]: 74.4 (41.3–107.4) cc
Gallbladder volume, mean change from baseline (95% CI) [1, 5]: 26.8 (11.5–42.1) cc
Mean change in gallbladder volume from baseline to last available off-treatment measurement (95% CI) [1, 6]: 7.1 (−28.9 to 43.0) cc
Mean change in gallbladder volume after discontinuation of motesanib (95% CI) [1, 6]: −7.4 (−67.1 to 52.4) cc
Gallbladder volume, maximum change from baseline (95% CI) [1, 7]: 67.3 (30.8–103.8) cc
Gallbladder volume, mean change from baseline (95% CI) [1, 7]: 26.9 (8.8–45.1) cc
Gallbladder volume change from baseline during treatment, median ([1]; across all patients): 17.3 cc
Gallbladder volume change from baseline during treatment, range ([1]; across all patients): −43.3 to 83.2 cc
Gallbladder volume increase from baseline during treatment, mean ([1]; across all patients, from 38.6 cc at baseline): 22.2 cc
Mean change in ejection fraction after discontinuation of motesanib (95% CI) ([2]; Arm A, 125 mg QD, n = 5): 10.8 (−45.8 to 67.4) %
Mean change in ejection fraction from baseline to last available off-treatment measurement (95% CI) ([2]; Arm A, 125 mg QD, n = 5): −16.6 (−53.3 to 20.1) %
Gallbladder ejection fraction, maximum change from baseline (95% CI) ([2]; Arm A, 125 mg QD, n = 21): −30.1 (−46.4 to −13.7) %
Gallbladder ejection fraction, mean change from baseline (95% CI) ([2]; Arm A, 125 mg QD, n = 21): −24.1 (−38.2 to −9.9) %
Mean change in ejection fraction after discontinuation of motesanib (95% CI) [2, 8]: 63.0 (24.0 to 102.0) %
Mean change in ejection fraction from baseline to last available off-treatment measurement (95% CI) [2, 8]: 7.7 (−3.8 to 19.1) %
Gallbladder ejection fraction, maximum change from baseline (95% CI) [2, 9]: −26.5 (−45.0 to −8.0) %
Gallbladder ejection fraction, mean change from baseline (95% CI) [2, 9]: −25.0 (−43.9 to −6.1) %
Mean change in ejection fraction after discontinuation of motesanib (95% CI) [2, 10]: 46.0 (−347.9 to 439.9) %
Mean change in ejection fraction from baseline to last available off-treatment measurement (95% CI) [2, 10]: 14.5 (−55.4 to 84.4) %
Gallbladder ejection fraction, maximum change from baseline (95% CI) [2, 11]: −6.5 (−29.8 to 16.8) %
Gallbladder ejection fraction, mean change from baseline (95% CI) [2, 11]: −3.3 (−25.0 to 18.4) %
Gallbladder ejection fraction change from baseline, median ([2]; across all patients): −18.0%
Gallbladder ejection fraction change from baseline, range ([2]; across all patients): −81% to 67
Gallbladder ejection fraction decrease from baseline, mean ([2]; across all patients, from 61.3% at baseline): 19.2%
Compound: CC1(C)CNc2cc(NC(=O)c3cccnc3NCc3ccncc3)ccc21 [Motesanib]
Incidence of biliary sludge ([3]; Arm A, 125 mg QD): 39%
Gallstones, patient incidence ([3]; Arm A, 125 mg QD, post baseline (any point during treatment), n = 23): 4 (17) n (%)
Common duct dilation, patient incidence [3, 12]: 0 (0) n (%)
Pericholecystic fluid, patient incidence [3, 12]: 1 (4) n (%)
Sludge, patient incidence [3, 12]: 9 (39) n (%)
Gallstones, patient incidence ([3]; Arm A, 125 mg QD, post treatment (last available off-treatment assessment), n = 16): 3 (19) n (%)
Common duct dilation, patient incidence [3, 13]: 0 (0) n (%)
Pericholecystic fluid, patient incidence [3, 13]: 0 (0) n (%)
Sludge, patient incidence [3, 13]: 4 (25) n (%)
Incidence of biliary sludge ([3]; Arm B, 75 mg BID 2 wk on/1 wk off): 36%
Common duct dilation, patient incidence [3, 14]: 0 (0) n (%)
Gallstones, patient incidence [3, 14]: 2 (18) n (%)
Pericholecystic fluid, patient incidence [3, 14]: 1 (9) n (%)
Sludge, patient incidence [3, 14]: 4 (36) n (%)
Common duct dilation, patient incidence [3, 15]: 0 (0) n (%)
Gallstones, patient incidence [3, 15]: 2 (22) n (%)
